ChEMBL document CHEMBL1156723, “Structure-activity relationship study on a novel series of cyclopentane-containing macrocyclic inhibitors of the hepatitis C virus NS3/4A protease leading to the discovery of TMC435350” (Bioorg Med Chem Lett, 2008)

Tested on: not listed separately
Experiment: Ratio of drug level in liver to plasma in Sprague-Dawley rat at 2 mg/kg, iv after 8 hrs
Format: ADME, organism-based
Set-up: dose 2 mg/kg, route intravenous
Details: not given

Kp at 8 h | Structure (SMILES)
23.5 | COc1ccc2c(O[C@@H]3C[C@H]4C(=O)N[C@]5(C(=O)NS(=O)(=O)C6CC6)C[C@H]5/C=C\CCCCN(C)C(=O)[C@@H]4C3)cc(-n3ccc(C(C)C)n3)nc2c1C

Tested on: not listed separately
Experiment: Metabolic stability in human liver microsomes assessed as intrinsic clearance
Format: ADME, Microsome
Details: not given

microsomal CLint [µL/min/mg] | Structure (SMILES)
< 6 | COc1ccc2c(O[C@@H]3C[C@H]4C(=O)N[C@]5(C(=O)NS(=O)(=O)C6CC6)C[C@H]5/C=C\CCCCN(C)C(=O)[C@@H]4C3)cc(-c3cccc(C(C)C)n3)nc2c1C
9 | COc1ccc2c(O[C@@H]3C[C@H]4C(=O)N[C@]5(C(=O)NS(=O)(=O)C6CC6)C[C@H]5/C=C\CCCCN(C)C(=O)[C@@H]4C3)cc(-c3nc(C(C)C)cs3)nc2c1Cl
38 | COc1ccc2c(O[C@@H]3C[C@H]4C(=O)N[C@]5(C(=O)NS(=O)(=O)C6CC6)C[C@H]5/C=C\CCCCN(C)C(=O)[C@@H]4C3)cc(-c3nccs3)nc2c1
15 | COc1ccc2c(O[C@@H]3C[C@H]4C(=O)N[C@]5(C(=O)NS(=O)(=O)C6CC6)C[C@H]5/C=C\CCCCN(C)C(=O)[C@@H]4C3)cc(-c3csc(NC(C)C)n3)nc2c1
< 6 | COc1ccc2c(O[C@@H]3C[C@H]4C(=O)N[C@]5(C(=O)NS(=O)(=O)C6CC6)C[C@H]5/C=C\CCCCN(C)C(=O)[C@@H]4C3)cc(-n3ccc(C(C)C)n3)nc2c1C

Tested on: Hepatitis C virus
Experiment: Antiviral activity against HCV in human Huh7 cells assessed as luciferase activity
Format: functional, organism-based, Hepacivirus hominis
Details: Huh-7

EC50 [nM] | Structure (SMILES)
6.8 | COc1ccc2c(O[C@@H]3C[C@H]4C(=O)N[C@]5(C(=O)NS(=O)(=O)C6CC6)C[C@H]5/C=C\CCCCN(C)C(=O)[C@@H]4C3)cc(-c3cccc(C(C)C)n3)nc2c1C
2.9 | COc1ccc2c(O[C@@H]3C[C@H]4C(=O)N[C@]5(C(=O)NS(=O)(=O)C6CC6)C[C@H]5/C=C\CCCCN(C)C(=O)[C@@H]4C3)cc(-c3nc(C(C)C)cs3)nc2c1Cl
11 | COc1ccc2c(O[C@@H]3C[C@H]4C(=O)N[C@]5(C(=O)NS(=O)(=O)C6CC6)C[C@H]5/C=C\CCCCN(C)C(=O)[C@@H]4C3)cc(-c3nccs3)nc2c1
17 | COc1ccc2c(O[C@@H]3C[C@H]4C(=O)N[C@]5(C(=O)NS(=O)(=O)C6CC6)C[C@H]5/C=C\CCCCN(C)C(=O)[C@@H]4C3)cc(-c3csc(NC(C)C)n3)nc2c1
9.7 | COc1ccc2c(O[C@@H]3C[C@H]4C(=O)N[C@]5(C(=O)NS(=O)(=O)C6CC6)C[C@H]5/C=C\CCCCN(C)C(=O)[C@@H]4C3)cc(-n3ccc(C(C)C)n3)nc2c1C

Molecular target: not listed separately
Experiment: Inhibition of recombinant full length HCV NS3/4A protease
Set-up: species or system Hepacivirus hominis
Details: not given

Ki [nM] | Structure (SMILES)
0.3 | COc1ccc2c(O[C@@H]3C[C@H]4C(=O)N[C@]5(C(=O)NS(=O)(=O)C6CC6)C[C@H]5/C=C\CCCCN(C)C(=O)[C@@H]4C3)cc(-c3cccc(C(C)C)n3)nc2c1C
0.1 | COc1ccc2c(O[C@@H]3C[C@H]4C(=O)N[C@]5(C(=O)NS(=O)(=O)C6CC6)C[C@H]5/C=C\CCCCN(C)C(=O)[C@@H]4C3)cc(-c3nc(C(C)C)cs3)nc2c1Cl
0.2 | COc1ccc2c(O[C@@H]3C[C@H]4C(=O)N[C@]5(C(=O)NS(=O)(=O)C6CC6)C[C@H]5/C=C\CCCCN(C)C(=O)[C@@H]4C3)cc(-c3nccs3)nc2c1
1.4 | COc1ccc2c(O[C@@H]3C[C@H]4C(=O)N[C@]5(C(=O)NS(=O)(=O)C6CC6)C[C@H]5/C=C\CCCCN(C)C(=O)[C@@H]4C3)cc(-c3csc(NC(C)C)n3)nc2c1
0.16 | COc1ccc2c(O[C@@H]3C[C@H]4C(=O)N[C@]5(C(=O)NS(=O)(=O)C6CC6)C[C@H]5/C=C\CCCCN(C)C(=O)[C@@H]4C3)cc(-n3ccc(C(C)C)n3)nc2c1C

Tested on: not listed separately
Experiment: Volume of distribution at steady state in Sprague-Dawley rat at 2 mg/kg, iv
Format: ADME, organism-based
Set-up: dose 2 mg/kg, route intravenous
Details: in vivo, read-out: Vdss

Vd [L/kg] | Structure (SMILES)
0.7 | COc1ccc2c(O[C@@H]3C[C@H]4C(=O)N[C@]5(C(=O)NS(=O)(=O)C6CC6)C[C@H]5/C=C\CCCCN(C)C(=O)[C@@H]4C3)cc(-c3cccc(C(C)C)n3)nc2c1C
4.6 | COc1ccc2c(O[C@@H]3C[C@H]4C(=O)N[C@]5(C(=O)NS(=O)(=O)C6CC6)C[C@H]5/C=C\CCCCN(C)C(=O)[C@@H]4C3)cc(-n3ccc(C(C)C)n3)nc2c1C

Tested on: not listed separately
Experiment: Cmax in Sprague-Dawley rat at 10 mg/kg, po
Format: ADME, organism-based
Set-up: dose 10 mg/kg, route oral
Details: in vivo

Cmax [nM] | Structure (SMILES)
300 | COc1ccc2c(O[C@@H]3C[C@H]4C(=O)N[C@]5(C(=O)NS(=O)(=O)C6CC6)C[C@H]5/C=C\CCCCN(C)C(=O)[C@@H]4C3)cc(-c3cccc(C(C)C)n3)nc2c1C
310 | COc1ccc2c(O[C@@H]3C[C@H]4C(=O)N[C@]5(C(=O)NS(=O)(=O)C6CC6)C[C@H]5/C=C\CCCCN(C)C(=O)[C@@H]4C3)cc(-n3ccc(C(C)C)n3)nc2c1C

Tested on: not listed separately
Experiment: Ratio of drug level in liver to plasma in Sprague-Dawley rat at 10 mg/kg, po after 8 hrs
Format: ADME, organism-based
Set-up: dose 10 mg/kg, route oral
Details: not given

Kp at 8 h | Structure (SMILES)
44 | COc1ccc2c(O[C@@H]3C[C@H]4C(=O)N[C@]5(C(=O)NS(=O)(=O)C6CC6)C[C@H]5/C=C\CCCCN(C)C(=O)[C@@H]4C3)cc(-n3ccc(C(C)C)n3)nc2c1C

Tested on: not listed separately
Experiment: Clearance in Sprague-Dawley rat at 2 mg/kg, iv
Format: ADME, organism-based
Set-up: dose 2 mg/kg, route intravenous
Details: in vivo

clearance [mL/min/kg] | Structure (SMILES)
23.3 | COc1ccc2c(O[C@@H]3C[C@H]4C(=O)N[C@]5(C(=O)NS(=O)(=O)C6CC6)C[C@H]5/C=C\CCCCN(C)C(=O)[C@@H]4C3)cc(-c3cccc(C(C)C)n3)nc2c1C
41.7 | COc1ccc2c(O[C@@H]3C[C@H]4C(=O)N[C@]5(C(=O)NS(=O)(=O)C6CC6)C[C@H]5/C=C\CCCCN(C)C(=O)[C@@H]4C3)cc(-n3ccc(C(C)C)n3)nc2c1C

Tested on: not listed separately
Experiment: Oral bioavailability in Sprague-Dawley rat at 10 mg/kg, po
Format: ADME, organism-based
Details: in vivo

bioavailability [%] | Structure (SMILES)
31 | COc1ccc2c(O[C@@H]3C[C@H]4C(=O)N[C@]5(C(=O)NS(=O)(=O)C6CC6)C[C@H]5/C=C\CCCCN(C)C(=O)[C@@H]4C3)cc(-c3cccc(C(C)C)n3)nc2c1C
25 | COc1ccc2c(O[C@@H]3C[C@H]4C(=O)N[C@]5(C(=O)NS(=O)(=O)C6CC6)C[C@H]5/C=C\CCCCN(C)C(=O)[C@@H]4C3)cc(-n3ccc(C(C)C)n3)nc2c1C

Tested on: not listed separately
Experiment: Tmax in Sprague-Dawley rat at 10 mg/kg, po
Format: ADME, organism-based
Set-up: dose 10 mg/kg, route oral
Details: in vivo

Tmax [h] | Structure (SMILES)
2 | COc1ccc2c(O[C@@H]3C[C@H]4C(=O)N[C@]5(C(=O)NS(=O)(=O)C6CC6)C[C@H]5/C=C\CCCCN(C)C(=O)[C@@H]4C3)cc(-c3cccc(C(C)C)n3)nc2c1C
1.5 | COc1ccc2c(O[C@@H]3C[C@H]4C(=O)N[C@]5(C(=O)NS(=O)(=O)C6CC6)C[C@H]5/C=C\CCCCN(C)C(=O)[C@@H]4C3)cc(-n3ccc(C(C)C)n3)nc2c1C

Tested on: not listed separately
Experiment: Half life in Sprague-Dawley rat at 10 mg/kg, po
Format: ADME, organism-based
Set-up: dose 10 mg/kg, route oral
Details: in vivo

half-life [h] | Structure (SMILES)
5.8 | COc1ccc2c(O[C@@H]3C[C@H]4C(=O)N[C@]5(C(=O)NS(=O)(=O)C6CC6)C[C@H]5/C=C\CCCCN(C)C(=O)[C@@H]4C3)cc(-c3cccc(C(C)C)n3)nc2c1C
2.2 | COc1ccc2c(O[C@@H]3C[C@H]4C(=O)N[C@]5(C(=O)NS(=O)(=O)C6CC6)C[C@H]5/C=C\CCCCN(C)C(=O)[C@@H]4C3)cc(-n3ccc(C(C)C)n3)nc2c1C

Tested on: not listed separately
Experiment: AUC in Sprague-Dawley rat at 10 mg/kg, po
Format: ADME, organism-based
Set-up: dose 10 mg/kg, route oral
Details: plasma

AUC [µM·h] | Structure (SMILES)
1.4 | COc1ccc2c(O[C@@H]3C[C@H]4C(=O)N[C@]5(C(=O)NS(=O)(=O)C6CC6)C[C@H]5/C=C\CCCCN(C)C(=O)[C@@H]4C3)cc(-c3cccc(C(C)C)n3)nc2c1C
1.3 | COc1ccc2c(O[C@@H]3C[C@H]4C(=O)N[C@]5(C(=O)NS(=O)(=O)C6CC6)C[C@H]5/C=C\CCCCN(C)C(=O)[C@@H]4C3)cc(-n3ccc(C(C)C)n3)nc2c1C

Tested on: not listed separately
Experiment: AUC in Sprague-Dawley rat at 2 mg/kg, iv
Format: ADME, organism-based
Set-up: dose 2 mg/kg, route intravenous
Details: plasma

AUC [µM·h] | Structure (SMILES)
1.36 | COc1ccc2c(O[C@@H]3C[C@H]4C(=O)N[C@]5(C(=O)NS(=O)(=O)C6CC6)C[C@H]5/C=C\CCCCN(C)C(=O)[C@@H]4C3)cc(-c3cccc(C(C)C)n3)nc2c1C
1.05 | COc1ccc2c(O[C@@H]3C[C@H]4C(=O)N[C@]5(C(=O)NS(=O)(=O)C6CC6)C[C@H]5/C=C\CCCCN(C)C(=O)[C@@H]4C3)cc(-n3ccc(C(C)C)n3)nc2c1C
